Experimental data reported in ChEMBL document CHEMBL1151561, “Benzopyran sulfoxide derivatives as New potassium channel activator” (Bioorg Med Chem Lett, 1993).

Species on record: Canis familiaris
Assay: The compound was tested for its relaxation activity on smooth muscle of canine mesenteric artery
Assay type: functional
Details: Canis lupus familiaris

Row | SMILES | EC50 [nM]
1 | CC1(C)C=C(c2cccc[n+]2[O-])c2cc(C#N)ccc2O1 | 222
2 | CC1(C)Oc2ccc(C#N)cc2[C@@H](N2CCCC2=O)[C@@H]1O [CROMAKALIM] | 1960

Next, values leading:

Row | EC50 [nM] | SMILES
3 | 1960 | CC1(C)C=C(C2CCC[S+]2[O-])c2cc([N+](=O)[O-])ccc2O1 (stereo not given)
4 | 61.8 | CC1(C)C=C(c2cccc[n+]2[O-])c2cc([N+](=O)[O-])ccc2O1
5 | 12200 | CC1(C)C[C@](O)(C2CCC[S+]2[O-])c2cc([N+](=O)[O-])ccc2O1 (stereo not given in full)
